Source: patent publication US6482829B2, “Substituted heterocyclic siprodecane compound active as an antagonist of neurokinin 1 receptor” (Hoffmann-La Roche Inc., priority 2000, dated 2002)

Molecular target: human NK1 receptors (Homo sapiens, UniProt P25103)
Test: Affinity for the NK1 receptor, [3H]substance P displacement binding assay
Settings: human NK1 receptors in CHO cells (Semliki virus expression system); [3H]substance P 0.6 nM; 60 min at room temperature
Protocol: The affinity of test compounds for the NK1 receptor was evaluated at human NK1 receptors in CHO cells infected with the human NK1 receptor (using the Semliki virus expression system) and radiolabelled with [^3H]substance P (final concentration 0.6 nM). Binding assays were performed in HEPES buffer (50 mM, pH 7.4) containing BSA (0.04%) leupeptin (8 μg/ml), MnCl2 (3 mM) and phosphoramidon (2 μM). Binding assays consisted of 250 μl of membrane suspension (1.25×10^5 cells/assay tube), […] of buffer of displacing agent and 125 μl of [^3H]substance P. Displacement curves were determined with at least seven concentrations of the compound. The assay tubes were incubated for 60 min at room temperature after which time the tube contents were rapidly filtered under vacuum through GF/C filters presoaked for 60 min with PEI (0.3%) with 2×2 ml washes of HEPES buffer (50 mM, pH 7.4). The radioactivity retained on the filters was measured by scintillation counting. All assays were performed in triplicate in at least 2 separate experiments.

Sequence of human NK1 receptors (P25103 whole entry): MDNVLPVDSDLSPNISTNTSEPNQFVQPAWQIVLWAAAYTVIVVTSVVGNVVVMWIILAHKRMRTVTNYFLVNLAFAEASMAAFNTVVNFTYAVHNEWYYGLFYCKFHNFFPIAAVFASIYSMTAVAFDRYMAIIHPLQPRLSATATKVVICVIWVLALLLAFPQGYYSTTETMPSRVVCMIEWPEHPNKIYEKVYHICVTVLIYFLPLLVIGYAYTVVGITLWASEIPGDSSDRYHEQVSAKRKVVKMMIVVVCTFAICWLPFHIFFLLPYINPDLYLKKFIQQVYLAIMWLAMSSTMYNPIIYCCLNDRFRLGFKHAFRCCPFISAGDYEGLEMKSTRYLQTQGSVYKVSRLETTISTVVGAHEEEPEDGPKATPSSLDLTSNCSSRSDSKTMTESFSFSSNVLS

| pKi (affinity to the NK-1 receptor) | Compound |
| --- | --- |
| 8.34 | Rac-8-(3,5-Bis-trifluoromethyl-benzoyl)-3-(2-methoxy-ethyl)-2-methyl-1-o-tolyl-1,3,8-triaza-spiro[4.5]decan-4-one [Example 137] |
| 8.29 | Cc1ccccc1N1CN(Cc2cccnc2)C(=O)C12CCN(C(=O)c1cc(C(F)(F)F)cc(C(F)(F)F)c1)CC2 [Example 45, 8-(3,5-Bis-trifluoromethyl-benzoyl)-3-pyridin-3-yl-methyl-1-o-tolyl-1,3,8-triaza-spiro[4.5]decan-4-one] |

Same assay, conditions: human NK1 receptors in CHO cells (Semliki virus expression system); [3H]substance P 0.6 nM; 60 min at room temperature; read-out: pKi (affinity to the NK-1 receptor) (converted)

| Compound | Ki [nM] |
| --- | --- |
| COc1nc(OC)nc(N2CN(c3ccccc3)C3(CCN(C(=O)c4cc(C(F)(F)F)cc(C(F)(F)F)c4)CC3)C2=O)n1 [Example 6, 8-(3,5-Bis-trifluoromethyl-benzoyl)-3-(4,6-dimethoxy-[1,3,5]triazin-2-yl)-1-phenyl-1,3,8-triaza-spiro[4.5]decan-4-one] | 2.19 |
| COc1nc(OC)nc(N2CN(c3ccc(Cl)c(Cl)c3)C3(CCN(C(=O)c4cc(C(F)(F)F)cc(C(F)(F)F)c4)CC3)C2=O)n1 [Example 39, 8-(3,5-Bis-trifluoromethyl-benzoyl)-1-(3,4-dichloro-phenyl)-3-(4,6-dimethoxy-[1,3,5]triazin-2-yl)-1,3,8-triaza-spiro[4.5]decan-4-one] | 93.3 |
| Cc1ccccc1N1CN(CCN2CCCC2)C(=O)C12CCN(C(=O)c1cc(C(F)(F)F)cc(C(F)(F)F)c1)CC2 [Example 58, 8-(3,5-Bis-trifluoromethyl-benzoyl)-3-(2-pyrrolidin-1-yl-ethyl)-1-o-tolyl-1,3,8-triaza-spiro[4.5]decan-4-one] | 8.32 |
| O=C(c1cc(C(F)(F)F)cc(C(F)(F)F)c1)N1CCC2(CC1)C(=O)N(c1ncc(Cl)cc1Cl)CN2c1ccccc1 [Example 26, 8-(3,5-Bis-trifluoromethyl-benzoyl)-3-(3,5-dichloro-pyridin-2-yl)-1-phenyl-1,3,8-triaza-spiro[4.5]decan-4-one] | 33.9 |

Results, then the compound that gave them:

| Ki [nM] | Compound |
| --- | --- |
| 4.27 | CN1CN(c2ccccc2Cl)C2(CCN(C(=O)c3cc(C(F)(F)F)cc(C(F)(F)F)c3)CC2)C1=O [Example 70, 8-(3,5-Bis-trifluoromethyl-benzoyl)-1-(2-chloro-phenyl)-3-methyl-1,3,8-triaza-spiro[4.5]decan-4-one] |
| 11 | Cc1ccccc1C1=CN(C)C(=O)C12CCN(C(=O)c1cc(C(F)(F)F)cc(C(F)(F)F)c1)CC2 [Example 170, 8-(3,5-Bis-trifluoromethyl-benzoyl)-2-methyl-4-o-tolyl-2,8-diaza-spiro[4.5]dec-3-en-1-one] |
| 7.59 | Cc1ccccc1C1CNC(=O)C12CCN(C(=O)c1cc(C(F)(F)F)cc(C(F)(F)F)c1)CC2 (racemic) [Example 176, (rac)-8-(3,5-Bis-trifluoromethyl-benzoyl)-4-o-tolyl-2,8-diaza-spiro[4.5]decan-1-one] |
| 7.59 | CC1NC(=O)C2(CCN(C(=O)c3cc(C(F)(F)F)cc(C(F)(F)F)c3)CC2)N1c1ccccc1 (racemic) [Example 91, (rac)-8-(3,5-Bis-trifluoromethyl-benzoyl)-2-methyl-1-phenyl-1,3,8-triaza-spiro[4.5]decan-4-one] |

Test system: not given
Test: not given
Settings: not given

| Compound | melting point [°C] |
| --- | --- |
| O=C(c1cc(C(F)(F)F)cc(C(F)(F)F)c1)N1CCC2(CC1)C(=O)NCN2c1ccccc1 [Example 1, 8-(3,5-Bis-trifluoromethyl-benzoyl)-1-phenyl-1,3,8-triaza-spiro[4.5]decan-4-one] | 251 |
| O=C(c1cc(C(F)(F)F)cc(C(F)(F)F)c1)N1CCC2(CC1)C(=O)NC(=O)N2c1ccccc1Cl | 153 to 154 |

Now from value to compound:

| melting point [°C] | Compound |
| --- | --- |
| 164 to 168 | Cc1ccccc1N1CNC(=O)C12CCN(C(=O)c1cc(C(F)(F)F)cc(C(F)(F)F)c1)CC2 [Example 66, 8-(3,5-Bis-trifluoromethyl-benzoyl)-1-o-tolyl-1,3,8-triaza-spiro[4.5]decan-4-one] |
| 220 to 222 | O=C(c1cc(C(F)(F)F)cc(C(F)(F)F)c1)N1CCC2(CC1)C(=O)NCN2c1ccc(Cl)c(Cl)c1 [Example 65, 8-(3,5-Bis-trifluoromethyl-benzoyl)-1-(3,4-dichloro-phenyl)-1,3,8-triaza-spiro[4.5]decan-4-one] |
| 157 to 159 | O=C(c1cc(C(F)(F)F)cc(C(F)(F)F)c1)N1CCC2(CC1)C(=O)NCN2c1ccccc1Cl [Example 67, 8-(3,5-Bis-trifluoromethyl-benzoyl)-1-(2-chloro-phenyl)-1,3,8-triaza-spiro[4.5]decan-4-one] |
| 235 to 236 | O=C(c1cc(C(F)(F)F)cc(C(F)(F)F)c1)N1CCC2(CC1)C(=O)NCN2c1cccc(Cl)c1 [Example 63, 8-(3,5-Bis-trifluoromethyl-benzoyl)-1-(3-chloro-phenyl)-1,3,8-triaza-spiro[4.5]decan-4-one] |
| 233 to 235 | O=C(c1cc(C(F)(F)F)cc(C(F)(F)F)c1)N1CCC2(CC1)C(=O)NCN2c1ccc(Cl)cc1 [Example 64, 8-(3,5-Bis-trifluoromethyl-benzoyl)-1-(4-chloro-phenyl)-1,3,8-triaza-spiro[4.5]decan-4-one] |
| 212 to 214 | O=C(c1cc(C(F)(F)F)cc(C(F)(F)F)c1)N1CCC2(CC1)C(=O)N(c1cc(Cl)ncn1)CN2c1ccccc1 [Example 61, 8-(3,5-Bis-trifluoromethyl-benzoyl)-3-(6-chloro-pyrimidin-4-yl)-1-phenyl-1,3,8-triaza-spiro[4.5]decan-4-one] |
